From patent publication US20170268027A1, “METHOD FOR SYNTHESIS OF FATTY ACIDS” (priority 2014, published 2017)
Where two headings read alike, the source gives them in different places.

Columns and labels:
Y. lipolytica = test: preliminary dose studies of cerulenin on growth of Y. lipolytica; format: cell-based, Yarrowia lipolytica; conditions: doses tested 1 to 25 mgcerulenin·gx^−1
Yarrowia lipolytica W29 = test: Culture B: fed-batch culture of Y. lipolytica W29 under nitrogen limitation with cerulenin pulse (growth, fatty acid profile); format: cell-based; design: Length of the carbon chain: unit not given here
[1] = system: Yarrowia lipolytica JMY3501; test: Culture D: fed-batch culture of Y. lipolytica JMY3501 with cerulenin pulse (fatty acid profile); format: cell-based
Candida lypolytica = conditions: cited from earlier work
[2] = between injection and 3 h after injection
[3] = −2 h (before the pulse, baseline)

SMILES: C/C=C/C/C=C/CCC(=O)[C@H]1O[C@H]1C(N)=O [cerulenin]
- dose that completely inhibits growth (Y. lipolytica): 15 mgcerulenin·gx^−1
- Degree of unsaturation (Yarrowia lipolytica W29; 0 h (time of the pulse)): 0.95
- Length of the carbon chain (Yarrowia lipolytica W29; 0 h (time of the pulse)): 16.98
- time of appearance of short-chain fatty acids after the pulse (Yarrowia lipolytica W29; 7 mgcerulenin·gx^−1): 15 min
- culture time after which the effect of partial inhibition of elongation kinetics disappeared (Yarrowia lipolytica W29; 7 mgcerulenin·gx^−1 pulse): 9 h
- increase of mass content of palmitic acid (C16:0) relative to before the pulse (Yarrowia lipolytica W29; 3 h after pulse): 0.014 gAG·gx^−1
- increase of mass content of palmitoleic acid (C16:1) relative to before the pulse (Yarrowia lipolytica W29; 3 h after pulse): 0.023 gAG·gx^−1
- Degree of unsaturation (Yarrowia lipolytica W29; +15 min. after the pulse): 0.92
- Length of the carbon chain (Yarrowia lipolytica W29; +15 min. after the pulse): 16.83
- Degree of unsaturation (Yarrowia lipolytica W29; +1 h after the pulse): 0.73
- Length of the carbon chain (Yarrowia lipolytica W29; +1 h after the pulse): 16.3
- Degree of unsaturation (Yarrowia lipolytica W29; +3 h after the pulse): 0.75
- Length of the carbon chain (Yarrowia lipolytica W29; +3 h after the pulse): 15.3
- accumulation of short-chain fatty acids (Yarrowia lipolytica W29; after 3 h of culture after the pulse of 7 mgcerulenin·gx^−1): 24.5%
- mass fraction of the fatty acid C18:3 (Yarrowia lipolytica W29; after the pulse): 6%
- mass fraction F4,8 multiplied by (Yarrowia lipolytica W29; at 3 h): 70
- mass fraction F9,12 multiplied by (Yarrowia lipolytica W29; at 3 h): 28
- mass fraction F13,15 multiplied by (Yarrowia lipolytica W29; at 3 h): 15
- factor of multiplication of the specific rate of synthesis of short-chain or medium-chain fatty acid (Yarrowia lipolytica W29; before vs 3 h after the pulse): 14
- average degree of unsaturation of neo-synthesised fatty acids (Yarrowia lipolytica W29; [2]): 0.6
- average number of carbon atoms of neo-synthesised fatty acids (Yarrowia lipolytica W29; [2]): 12.74 carbon atoms
- effect on the growth dynamic of the yeast (Yarrowia lipolytica W29; dose 7 μgcerulenin·mgx^−1, nitrogen limitation): no effect
- total fatty acids accumulated (Yarrowia lipolytica W29; during the 10 h following the cerulenin pulse): 3%
- variation of the growth rate (Yarrowia lipolytica W29; during the 10 h following the first injection, 7 mgcerulenin·gx^−1): less than 5%
- specific speed of production of fatty acid (Yarrowia lipolytica W29; following the addition of cerulenin (0.004 before)): 0.0017 gAG·gx·h^−1
- variation of mass content of fatty acids C4:0-C8:0 relative to before the pulse (Yarrowia lipolytica W29; in 3 h): 0.05 gAG·gx^−1
- variation of mass content of fatty acids C9:0-C12:0 relative to before the pulse (Yarrowia lipolytica W29; in 3 h): 0.07 gAG·gx^−1
- variation of mass content of fatty acids C13:0-C15:0 relative to before the pulse (Yarrowia lipolytica W29; in 3 h): 0.07 gAG·gx^−1
- Degree of unsaturation (Yarrowia lipolytica W29; [3]): 0.97
- Length of the carbon chain (Yarrowia lipolytica W29; [3]): 16.97
- effect on accumulation of short-chain fatty acids ([1]; 0.25 mgcerulenin·gx^−1, lipid accumulation phase): increase the accumulation of short-chain fatty acids
- C12 content in the fatty acid composition ([1]; after pulse of 0.25 mgcerulenin·gx^−1 (4% before)): 7%
- C14 content in the fatty acid composition ([1]; after pulse of 0.25 mgcerulenin·gx^−1 (7% before)): 14%
- effect on growth (Candida lypolytica; substrate containing n-tetradecane to n-octadecane): without exerting any effect
- effect on growth (Candida lypolytica; substrate containing n-undecane or n-dodecane): completely blocks the growth
